From ChEMBL document CHEMBL1152592, “Design, synthesis and biological evaluations of novel 7-[3-(1-aminocycloalkyl)pyrrolidin-1-yl]-6-desfluoro-8-methoxyquinolones with potent antibacterial activity against multi-drug resistant Gram-positive bacteria” (Bioorg Med Chem, 2009)
In brackets after ≈: the same amount, converted by molar mass.

Assays:
Escherichia coli = test: Antibacterial activity against Escherichia coli NIHJ after 18 hrs by twofold microbroth dilution method; format: functional
Mus musculus [1] = test: Toxicity in Slc:ddY mouse at 150 mg/kg, iv; format: organism-based; design: dose 150 mg/kg, route intravenous; details: in vivo
[2] = Aqueous […] of the compound; format: physicochemical; details: aqueous (not further specified)
Staphylococcus aureus [3] = test: Antibacterial activity against Staphylococcus aureus FDA 209-P after 18 hrs by twofold microbroth dilution method; format: functional
Mus musculus [4] = test: Toxicity in Slc:ddY mouse assessed as micronucleated reticulocyte in blood at 100 mg/kg, iv after 48 hrs of treatment by fluorescence microscopy; format: organism-based; design: dose 100 mg/kg, route intravenous; details: in vivo
Mus musculus [5] = test: Toxicity in Slc:ddY mouse at 100 mg/kg, iv; format: organism-based; design: dose 100 mg/kg, route intravenous; details: in vivo
Streptococcus pneumoniae [6] = test: Antibacterial activity against Streptococcus pneumoniae J-24 after 18 hrs by twofold microbroth dilution method; format: functional; details: J-24, 18 h
Klebsiella pneumoniae = test: Antibacterial activity against Klebsiella pneumoniae type 2 after 18 hrs by twofold microbroth dilution method; format: functional; details: type 2, 18 h
Enterococcus faecalis [7] = test: Antibacterial activity against Enterococcus faecalis ATCC 19433 after 18 hrs by twofold microbroth dilution method; format: functional; details: ATCC19433, 18 h
Pseudomonas aeruginosa = test: Antibacterial activity against Pseudomonas aeruginosa PAO1 after 18 hrs by twofold microbroth dilution method; format: functional; details: PAO1, 18 h
[8] = tested on: Staphylococcus epidermidis; test: Antibacterial activity against Staphylococcus epidermidis 56500 after 18 hrs by twofold microbroth dilution method; format: functional; details: Staphylococcus epidermidis, 56500, 18 h
Mus musculus [9] = test: Toxicity in Slc:ddY mouse at 50 mg/kg, iv; format: organism-based; design: dose 50 mg/kg, route intravenous; details: in vivo
Streptococcus pyogenes = test: Antibacterial activity against Streptococcus pyogenes G-36 after 18 hrs by twofold microbroth dilution method; format: functional; details: G-36, 18 h
Streptococcus mitis = test: Antibacterial activity against Streptococcus mitis IID685 after 18 hrs by twofold microbroth dilution method; format: functional; details: IID685, 18 h
Streptococcus pneumoniae [10] = test: Antibacterial activity against penicillin-intermediate resistant Streptococcus pneumoniae after 18 hrs by twofold microbroth dilution method; format: functional
Enterococcus faecalis [11] = test: Antibacterial activity against vancomycin-resistant Enterococcus faecalis after 18 hrs by twofold microbroth dilution method; format: functional
Enterococcus faecium = test: Antibacterial activity against vancomycin-resistant Enterococcus faecium after 18 hrs by twofold microbroth dilution method; format: functional
Staphylococcus aureus [12] = test: Antibacterial activity against ciprofloxacin, methicillin-resistant Staphylococcus aureus after 18 hrs by twofold microbroth dilution method; format: functional
[13] = Inhibition of Staphylococcus aureus DNA topoisomerase 4 Ser80Phe mutant
Staphylococcus aureus [14] = test: Antibacterial activity against levofloxacin, methicillin-resistant Staphylococcus aureus after 18 hrs by twofold microbroth dilution method; format: functional
[15] = Inhibition of Staphylococcus aureus wild type DNA topoisomerase 4
DNA gyrase subunit A = DNA gyrase subunit A (Staphylococcus aureus, UniProt P20831, S84L); test: Inhibition of Staphylococcus aureus DNA gyrase Ser84Leu mutant
Staphylococcus aureus [16] = test: Selectivity ratio of IC50 for Staphylococcus aureus DNA topoisomerase 4 Ser80Phe mutant to IC50 for Staphylococcus aureus wild type DNA topoisomerase 4
Staphylococcus aureus [17] = test: Selectivity ratio of IC50 for Staphylococcus aureus DNA gyrase Ser84Leu mutant to IC50 for Staphylococcus aureus wild type DNA gyrase
DNA gyrase = DNA gyrase (Staphylococcus aureus, UniProt P0A0K8+P20831); test: Inhibition of Staphylococcus aureus wild type DNA gyrase; format: protein-complex assay

solubility [2] [µg/mL] | SMILES | MIC (Escherichia coli) [ng/mL] | Activity (Mus musculus [1]) | MIC (Staphylococcus aureus [3]) [µg/mL] | Activity (Mus musculus [5]) | MIC (Streptococcus pneumoniae [6]) [µg/mL] | MIC (Klebsiella pneumoniae) [µg/mL] | MIC (Enterococcus faecalis [7]) [µg/mL] | MIC (Pseudomonas aeruginosa) [µg/mL] | MIC [8] [µg/mL] | Activity (Mus musculus [9]) | MIC (Streptococcus pyogenes) [µg/mL] | MIC (Streptococcus mitis) [µg/mL] | MIC50 (Streptococcus pneumoniae [10]) [µg/mL] | MIC50 (Enterococcus faecalis [11]) [µg/mL] | MIC90 (Enterococcus faecalis [11]) [µg/mL] | MIC50 (Enterococcus faecium) [µg/mL] | MIC90 (Enterococcus faecium) [µg/mL] | MIC50 (Staphylococcus aureus [12]) [µg/mL] | MIC90 (Staphylococcus aureus [12]) [µg/mL] | other results
604 (≈ 1450 µM) | COc1c(N2CC[C@@H](C3(N)CCC3)C2)ccc2c(=O)c(C(=O)O)cn([C@@H]3C[C@@H]3F)c12 | 12 (≈ 0.0289 µM) | Toxic | ≤ 0.003 | Non-toxic | 0.006 (≈ 0.0144 µM) | 0.05 (≈ 0.12 µM) | 0.05 (≈ 0.12 µM) | 0.39 (≈ 0.939 µM) | 0.012 (≈ 0.0289 µM) | Non-toxic | 0.006 (≈ 0.0144 µM) | 0.003 (≈ 0.00722 µM) |  |  |  |  |  |  |  | Activity (Mus musculus [4]): Toxic
221 (≈ 527 µM) | COc1c(N2CC[C@@H](C3(N)CC3)C2)c(F)cc2c(=O)c(C(=O)O)cn([C@@H]3C[C@@H]3F)c12 | ≤ 3 | Toxic | ≤ 0.003 | Toxic | ≤ 0.003 | 0.012 (≈ 0.0286 µM) | 0.012 (≈ 0.0286 µM) | 0.2 (≈ 0.477 µM) | ≤ 0.003 | Toxic | 0.003 (≈ 0.00715 µM) | 0.003 (≈ 0.00715 µM) |  |  |  |  |  |  |  | 
 | NCC[C@H](O)C(=O)N[C@@H]1C[C@H](N)[C@@H](O[C@H]2O[C@H](CN)CC[C@H]2N)[C@H](O)[C@H]1O[C@H]1O[C@H](CO)[C@@H](O)[C@H](N)[C@H]1O [ARBEKACIN] |  |  |  |  |  |  |  |  |  |  |  |  | 32 (≈ 57.9 µM) | 2 (≈ 3.62 µM) | 2 (≈ 3.62 µM) | 16 (≈ 29 µM) | 32 (≈ 57.9 µM) | 8 (≈ 14.5 µM) | 32 (≈ 57.9 µM) | MIC90 (Streptococcus pneumoniae [10]): 64 µg/mL (≈ 116 µM)
 | COc1c(N2C[C@@H]3CCCN[C@@H]3C2)c(F)cc2c(=O)c(C(=O)O)cn(C3CC3)c12 [MOXIFLOXACIN] | 6 (≈ 0.0149 µM) |  | 0.013 (≈ 0.0324 µM) |  | 0.025 (≈ 0.0623 µM) | 0.05 (≈ 0.125 µM) | 0.2 (≈ 0.498 µM) | 0.78 (≈ 1.94 µM) | 0.1 (≈ 0.249 µM) |  | 0.2 (≈ 0.498 µM) | 0.1 (≈ 0.249 µM) |  | 16 (≈ 39.9 µM) | 32 (≈ 79.7 µM) | 4 (≈ 9.96 µM) | 32 (≈ 79.7 µM) | 2 (≈ 4.98 µM) | 32 (≈ 79.7 µM) | IC50 [13]: 24.2 µg/mL (≈ 60.3 µM); MIC50 (Staphylococcus aureus [14]): 4 µg/mL (≈ 9.96 µM); MIC80 (Staphylococcus aureus [14]): 32 µg/mL (≈ 79.7 µM); MIC90 (Staphylococcus aureus [14]): 32 µg/mL (≈ 79.7 µM); IC50 [15]: 1.36 µg/mL (≈ 3.39 µM)
173 (≈ 399 µM) | CNC1([C@@H]2CCN(c3c(F)cc4c(=O)c(C(=O)O)cn([C@@H]5C[C@@H]5F)c4c3OC)C2)CC1 | ≤ 3 | Toxic | ≤ 0.003 | Toxic | ≤ 0.003 | 0.012 (≈ 0.0277 µM) | 0.025 (≈ 0.0577 µM) | 0.2 (≈ 0.461 µM) | 0.006 (≈ 0.0138 µM) | Toxic | 0.003 (≈ 0.00692 µM) | 0.003 (≈ 0.00692 µM) |  |  |  |  |  |  |  | 
 | C[C@H]1NCc2cc(-c3ccc4c(=O)c(C(=O)O)cn(C5CC5)c4c3OC(F)F)ccc21 [GARENOXACIN] | 12 (≈ 0.0281 µM) |  | 0.025 (≈ 0.0586 µM) |  | 0.025 (≈ 0.0586 µM) | 0.05 (≈ 0.117 µM) | 0.2 (≈ 0.469 µM) | 0.78 (≈ 1.83 µM) | 0.05 (≈ 0.117 µM) |  | 0.1 (≈ 0.235 µM) | 0.05 (≈ 0.117 µM) | 0.12 (≈ 0.281 µM) | 4 (≈ 9.38 µM) | 8 (≈ 18.8 µM) | 8 (≈ 18.8 µM) | 32 (≈ 75 µM) | 1 (≈ 2.35 µM) | 32 (≈ 75 µM) | MIC90 (Streptococcus pneumoniae [10]): 0.12 µg/mL (≈ 0.281 µM); IC50 [13]: 20.7 µg/mL (≈ 48.5 µM); MIC50 (Staphylococcus aureus [14]): 2 µg/mL (≈ 4.69 µM); MIC80 (Staphylococcus aureus [14]): 64 µg/mL (≈ 150 µM); MIC90 (Staphylococcus aureus [14]): 64 µg/mL (≈ 150 µM); IC50 (DNA gyrase subunit A): > 1.2 mM; Ratio IC50 (Staphylococcus aureus [16]): 18.2; Ratio IC50 (Staphylococcus aureus [17]): > 143; IC50 (DNA gyrase): 8.42 µM; IC50 [15]: 1.14 µg/mL (≈ 2.67 µM)
 | O=C(O)c1cn(C2CC2)c2cc(N3CCNCC3)c(F)cc2c1=O [CIPROFLOXACIN] | ≤ 3 |  | 0.05 (≈ 0.151 µM) |  | 0.39 (≈ 1.18 µM) | 0.025 (≈ 0.0754 µM) | 0.78 (≈ 2.35 µM) | 0.05 (≈ 0.151 µM) | 0.2 (≈ 0.604 µM) |  | 1.56 (≈ 4.71 µM) | 0.78 (≈ 2.35 µM) |  |  |  |  |  |  |  | IC50 [13]: 22.4 µg/mL (≈ 67.6 µM); MIC50 (Staphylococcus aureus [14]): > 64 µg/mL; MIC80 (Staphylococcus aureus [14]): > 64 µg/mL; MIC90 (Staphylococcus aureus [14]): > 64 µg/mL; IC50 [15]: 1.24 µg/mL (≈ 3.74 µM)
 | CC(=O)NC[C@H]1CN(c2ccc(N3CCOCC3)c(F)c2)C(=O)O1 [LINEZOLID] |  |  |  |  |  |  |  |  |  |  |  |  | 1 (≈ 2.96 µM) | 2 (≈ 5.93 µM) | 2 (≈ 5.93 µM) | 2 (≈ 5.93 µM) | 2 (≈ 5.93 µM) | 1 (≈ 2.96 µM) | 1 (≈ 2.96 µM) | MIC90 (Streptococcus pneumoniae [10]): 2 µg/mL (≈ 5.93 µM)
